# Laboratory results taken from ChEMBL document CHEMBL1128274, “6-Aminoquinolones: a new class of quinolone antibacterials?” (1995).
# Columns and labels:
# Assay type in all cases: functional
# [1] = test system: Acinetobacter calcoaceticus; assay: Tested in vitro for inhibitory activity against gram negative bacteria Acinetobacter calcoaceticus OSMPV 113 strain.
# Staphylococcus aureus [2] = assay: Tested in vitro for inhibitory activity against gram positive bacteria Staphylococcus aureus ATCC 6538 strain
# Pseudomonas aeruginosa = assay: Tested in vitro for inhibitory activity against gram negative bacteria Pseudomonas aeruginosa ATCC 9027 strain
# Providencia stuartii = assay: Tested in vitro for inhibitory activity against gram negative bacteria Providencia stuartii CNUR 5 strain
# Klebsiella pneumoniae = assay: Tested in vitro for inhibitory activity against gram negative bacteria Klebsiella pneumoniae ATCC 10031 strain
# Shigella = assay: Tested in vitro for inhibitory activity against gram negative bacteria Shigella enteritidis
# Enterococcus faecalis = assay: Tested in vitro for inhibitory activity against gram positive bacteria Streptococcus faecalis LEP Br strain
# [3] = test system: Staphylococcus epidermidis; assay: Tested in vitro for inhibitory activity against gram positive bacteria Staphylococcus epidermidis HCF berset C strain
# [4] = test system: Staphylococcus epidermidis; assay: Tested in vitro for inhibitory activity against gram positive bacteria Staphylococcus epidermidis CPHL A2 strain
# Staphylococcus aureus [5] = assay: Tested in vitro for inhibitory activity against gram positive bacteria Staphylococcus aureus MPR 5 strain
# Escherichia coli [6] = assay: Tested in vitro for inhibitory activity against gram negative bacteria Escherichia coli ATCC 8739 strain
# Enterobacter cloacae = assay: Tested in vitro for inhibitory activity against gram negative bacteria Enterobacter cloacae OMNFI 174 strain.
# Escherichia coli [7] = assay: Tested in vitro for inhibitory activity against gram negative bacteria Escherichia coli ISF 432 strain.
# Escherichia coli [8] = assay: Tested in vitro for inhibitory activity against gram negative bacteria Escherichia coli ISF 432 cell lines at 25 ug/mL
# Escherichia coli [9] = assay: Tested in vitro for inhibitory activity against gram negative bacteria Escherichia coli ATCC 8739 cell lines at 25 ug/mL
Structure (SMILES),MIC [1] [mg/L],MIC (Staphylococcus aureus [2]) [mg/L],MIC (Pseudomonas aeruginosa) [mg/L],MIC (Providencia stuartii) [mg/L],MIC (Klebsiella pneumoniae) [mg/L],MIC (Shigella) [mg/L],MIC (Enterococcus faecalis) [mg/L],MIC [3] [mg/L],MIC [4] [mg/L],MIC (Staphylococcus aureus [5]) [mg/L],MIC (Escherichia coli [6]) [mg/L],MIC (Enterobacter cloacae) [mg/L],MIC (Escherichia coli [7]) [mg/L],MIC (Escherichia coli [8]) [mg/L],MIC (Escherichia coli [9]) [mg/L]
Nc1cc2c(=O)c(C(=O)O)cn(-c3ccc(F)cc3)c2cc1N1CCSCC1,4,0.5,128,4,0.03,4,128,4,4,1,0.06,4,0.03,,
CC(C)(C)n1cc(C(=O)O)c(=O)c2cc(N)c(N3CCCC3)cc21,16,4,64,64,0.12,32,128,8,8,8,0.12,16,0.12,,
NCCN1CCN(c2cc3c(cc2N)c(=O)c(C(=O)O)cn3C2CC2)CC1,32,128,32,128,0.5,2,128,32,64,128,0.5,2,0.5,,
Nc1cc2c(=O)c(C(=O)O)cn(C3CC3)c2cc1N1CCSC1,128,64,128,128,0.5,32,128,64,64,128,0.5,16,1,,
CN1CCN(c2c(F)c(N)c3c(=O)c(C(=O)O)cn(C4CC4)c3c2F)CC1,0.05,0.06,0.25,0.06,0.002,0.03,0.5,0.25,0.12,0.06,0.004,0.03,0.002,,
O=C(O)c1cn(C2CC2)c2c(F)c(N3CCSCC3)c(F)cc2c1=O,1,0.03,1,0.12,0.008,0.25,0.5,0.06,0.06,0.03,0.01,0.25,0.008,,
Nc1cc2c(=O)c(C(=O)O)cn(C3CC3)c2cc1N1CCC(O)CC1,2,4,8,8,0.03,2,8,4,2,4,0.03,2,0.03,,
CN1CCN(c2c(N)cc3c(=O)c(C(=O)O)cn(C4CC4)c3c2F)CC1,8,4,2,4,0.05,0.25,64,8,4,4,,0.25,,0.05,1
Nc1cc2c(=O)c(C(=O)O)cn(C3CC3)c2cc1N1CCNCC1,16,64,2,32,0.25,0.5,128,16,16,64,0.25,0.25,0.03,,
CC(C)(C)n1cc(C(=O)O)c(=O)c2cc(N)c(N3CCc4ccccc4C3)cc21,2,0.25,32,4,0.12,8,8,1,0.5,0.5,0.12,8,0.12,,
CC(C)(C)n1cc(C(=O)O)c(=O)c2cc(N)c(N3CCN(c4ccccn4)CC3)cc21,1,1,128,128,0.25,64,16,2,1,1,0.5,64,0.5,,
CN1CCN(c2cc3c(cc2N)c(=O)c(C(=O)O)cn3-c2ccc(F)cc2)CC1,16,8,8,4,0.12,4,64,8,8,4,0.12,4,0.12,,
N#CCN1CCN(c2cc3c(cc2N)c(=O)c(C(=O)O)cn3C2CC2)CC1,64,64,64,2,2,32,,64,64,64,4,2,2,,
O=C(O)c1cn(C2CC2)c2cc(N3CCNCC3)c(F)cc2c1=O [CIPROFLOXACIN],0.06,0.12,0.06,0.06,0.03,0.03,0.5,0.12,0.06,0.12,,,,,
CC1CN(c2cc3c(cc2N)c(=O)c(C(=O)O)cn3C2CC2)CCN1 (stereo not drawn),16,16,2,16,0.03,0.25,32,4,4,16,0.03,0.25,0.03,,
CC(=O)NC1CCN(c2cc3c(cc2N)c(=O)c(C(=O)O)cn3C2CC2)C1 (stereo not drawn),128,128,128,128,4,128,128,128,128,128,4,128,4,,
C[C@@H]1CN(c2cc3c(cc2N)c(=O)c(C(=O)O)cn3C2CC2)C[C@H](C)N1,8,8,2,4,0.03,0.25,32,4,2,8,0.03,0.5,0.03,,
Nc1cc2c(=O)c(C(=O)O)cn(C3CC3)c2cc1N1CCCC1,128,128,128,128,0.25,16,128,128,128,128,0.25,8,0.25,,
CN1CCN(c2nc3c(c(N)c2N)c(=O)c(C(=O)O)cn3C2CC2)CC1,0.5,2,8,0.5,0.01,0.25,8,2,2,2,0.25,0.25,0.01,,
Nc1cc2c(=O)c(C(=O)O)cn(C3CC3)c2cc1N1CCC(N)C1 (stereo not drawn),128,128,16,128,1,16,128,128,128,128,1,16,0.5,,
CN1CCN(c2cc3c(cc2N)c(=O)c(C(=O)O)cn3C(C)(C)C)CC1,4,2,4,4,0.06,1,32,4,2,2,,1,,0.06,0.06
CN1CCN(c2nc3c(cc2N)c(=O)c(C(=O)O)cn3C2CC2)CC1,4,4,2,2,0.03,0.12,32,4,4,4,,0.12,,0.03,0.12
NCCSc1cc2c(cc1N)c(=O)c(C(=O)O)cn2C1CC1,128,128,128,128,2,128,128,128,128,128,1,128,1,,
CC(C)(C)n1cc(C(=O)O)c(=O)c2cc(N)c(N3CCc4ccccc43)cc21,8,2,32,4,0.12,8,64,4,4,2,0.12,8,0.12,,
